Experimental findings from the NIST ThermoML archive (doi:10.1016/j.fluid.2013.05.016) are described below.

For the series the following is noted: Liquid; for mass density: 298.2 K, 101.33 kPa, Vibrating tube method; for vapor or sublimation pressure / Normal boiling temperature: Ebulliometric method (Recirculating still).

± gives the expanded uncertainty stated by the source.

Take `CCCCCCCCC` [nonane]: the mass density is 714.07 ± 0.24 kg/m3 and the Normal boiling temperature stood at 150.7 ± 1 °C. For the same compound, the “vapor or sublimation pressure” value (423.8 K) is recorded as 101.3 ± 1.1 kPa.

Consider `Cc1ccccc1` [toluene], for which the mass density is recorded as 862.18 ± 0.24 kg/m3 and the Normal boiling temperature is 110.2 ± 1 °C. For the setting “383.4 K”, the “vapor or sublimation pressure” value is 101.3 ± 1.1 kPa.

`Cc1ccccc1C` [1,2-dimethylbenzene]: the mass density is given as 875.66 ± 0.24 kg/m3 and the Normal boiling temperature was determined as 144.4 ± 1 °C. For the same compound, where the note is “417.5 K”, the “vapor or sublimation pressure” value came to 101.3 ± 1.1 kPa.

Take `c1ccccc1` [benzene]: the mass density came to 873.66 ± 0.24 kg/m3 and the Normal boiling temperature turned out to be 80.2 ± 1 °C. Also, the “vapor or sublimation pressure” value (353.3 K) turned out to be 101.3 ± 1.1 kPa.

In the case of `CCCCCCC` [heptane], the mass density worked out at 679.52 ± 0.24 kg/m3 and the Normal boiling temperature stood at 98.2 ± 1 °C. Further, the “vapor or sublimation pressure” value (371.4 K) is 101.3 ± 1.1 kPa.
